According to publication PMC7601695, “Transcriptome Analysis of Psacothea hilaris: De Novo Assembly and Antimicrobial Peptide Prediction” (Insects, 2020):

What was measured:
Format in all cases: cell-based
[1] = test system: Escherichia coli (KACC 13821, ATCC 11775); experiment: Radial diffusion assay, E. coli; settings: for Diameter of clearing zone, E. coli: peptide 200 μg/mL, 5 μL per 3-mm well, 3 h diffusion then 12 h at 37 °C, mean of tests repeated three times; for Antimicrobial activity compared with melittin, E. coli: in words
Description: (§1) The bacterial strains Escherichia coli (KACC 13821, ATCC 11775) and Staphylococcus aureus (KACC 10768, ATCC 25923), and the yeast strain Candida albicans (KCTC 7121, ATCC 14053) were purchased from the Korean Agricultural Culture Collection (KACC) and Korean Collection for Type Cultures (KCTC). Both bacteria and yeast were grown overnight in tryptic soy broth (TSB; Difco, Thermo Fisher Scientific, Waltham, MA, USA) at 37 °C, 200 rpm to the stationary phase. Bacteria were re-inoculated in fresh TSB medium and cultivated for 3 h to the log phase. The strains were stored with 15% glycerol at −70 °C.
(§2) The radial diffusion assay was performed to test the antimicrobial activities of peptides, as described previously with slight modifications. In brief, bacteria and yeast strains were grown to the mid-logarithmic phase in TSB at 37 °C and then washed twice with 10 mM sodium phosphate buffer (pH 7.4). A total of 4 × 10^6 colony forming unit (CFU) was added to 10 mL of an underlay agarose gel (9 mM sodium phosphate, 1 mM sodium citrate, pH 7.4, 1% (w/v) Type I (low electroendosmosis) agarose (Sigma, St. Louis, MO, USA), and 3% TSB (Difco, USA)). The underlay gel was poured into a 100-mm INTEGRIDTM Petri dish. After agarose solidification, 3-mm-diameter wells were punched and 5 μL of each peptide solution was added to each well. Buffer alone was used as a negative control. Plates were incubated at 37 °C for 3 h to allow for diffusion of the peptides. The underlay gel was then covered with 10 mL of nutrient-rich agar overlay (6% TSB and 1% agarose). The antimicrobial activity of a peptide was measured as the diameter of the cleared zone around each well after 12 h of incubation at 37 °C. This experiment was repeated at least 3 times.

[2] = test system: Candida albicans (KCTC 7121, ATCC 14053); experiment: Radial diffusion assay, C. albicans; settings: for Diameter of clearing zone, C. albicans: peptide 200 μg/mL, 5 μL per 3-mm well, 3 h diffusion then 12 h at 37 °C, mean of tests repeated three times; for Antimicrobial activity compared with melittin, C. albicans: in words
Description: as §1, §2

mouse erythrocytes = experiment: Hemolytic assay; settings: 12.5 μg/mL; 2.5% (v/v) mouse erythrocytes in PBS; 30 min, 37 °C; A540
Description: This experiment was approved by the Institutional Animal Care and Use Committee (IACUC) of the National Institute of Agricultural Sciences (approval number: NAS-202014). The hemolytic activity of the peptides was determined by monitoring the release of hemoglobin from mouse erythrocytes at 540 nm. For the hemolytic assay, 20 μL of each peptide solution at a predetermined concentration was added to 180 μL of a 2.5% (v/v) suspension of mouse erythrocytes in phosphate-buffered saline (PBS). Melittin (Sigma), a hemolytic and α-helical peptide isolated from bee venom, were used as the positive control. This mixture was incubated for 30 min at 37 °C, and 600 μL of PBS was then added to each tube. After 3 min of centrifugation at 10,000× g, the supernatant was […], and the absorbance was measured at 540 nm. Evaluations were made from the results of at least three independent experiments, each carried out in triplicate.
Figure 4 Cytotoxic effects of 13 selected peptides. Hemolytic activity of the peptides. Peptide concentration (x-axis) is plotted against the percentage of hemolysis (y-axis) of mouse red blood cells after incubation for 30 min. Melittin was used as the positive control. The percent hemolysis was calculated with the following equation: hemolysis (%) = (A540 of samp—A540 of peptide-free control)/(A540 of 100% control—A540 of peptide-free control) × 100. […]

[3] = test system: Staphylococcus aureus (KACC 10768, ATCC 25923); experiment: Radial diffusion assay, S. aureus; settings: peptide 200 μg/mL, 5 μL per 3-mm well, 3 h diffusion then 12 h at 37 °C, mean of tests repeated three times
Description: as §1, §2

Compound	Diameter of clearing zone, E. coli [1]	Diameter of clearing zone, C. albicans [2]	Hemolysis of mouse red blood cells (mouse erythrocytes)	Diameter of clearing zone, S. aureus [3]	Antimicrobial activity compared with melittin, E. coli [1]	Antimicrobial activity compared with melittin, C. albicans [2]
CC[C@H](C)[C@H](NC(=O)CN)C(=O)NCC(=O)N[C@@H](C)C(=O)N[C@H](C(=O)N[C@@H](CC(C)C)C(=O)N[C@@H](CCCCN)C(=O)N[C@H](C(=O)N[C@@H](CC(C)C)C(=O)N[C@H](C(=O)N[C@H](C(=O)NCC(=O)N[C@@H](CC(C)C)C(=O)N1CCC[C@H]1C(=O)N[C@@H](C)C(=O)N[C@@H](CC(C)C)C(=O)N[C@H](C(=O)N[C@@H](CO)C(=O)N[C@@H](Cc1c[nH]c2ccccc12)C(=O)N[C@H](C(=O)N[C@@H](CCCCN)C(=O)N[C@@H](CCCNC(=N)N)C(=O)N[C@@H](CCCCN)C(=O)N[C@@H](CCCNC(=N)N)C(=O)N[C@@H](CCC(N)=O)C(=O)N[C@@H](CCC(N)=O)C(N)=O)[C@@H](C)CC)[C@@H](C)CC)[C@@H](C)O)[C@@H](C)O)C(C)C)C(C)C [Melittin, reference compound]	75 Units (1 mm = 10 Units)	65 Units (1 mm = 10 Units)	92%	100 Units (1 mm = 10 Units)	–	–
KRIFYLYIRGQ * [Ph 22, synthetic peptide predicted as novel AMP from the P. hilaris transcriptome]	85 Units (1 mm = 10 Units)	92 Units (1 mm = 10 Units)	–	95 Units (1 mm = 10 Units)	stronger antimicrobial activity than melittin	stronger antimicrobial activity than melittin
KMFTKCIRYRKM * [Ph 20, synthetic peptide predicted as novel AMP from the P. hilaris transcriptome]	65 Units (1 mm = 10 Units)	68 Units (1 mm = 10 Units)	–	85 Units (1 mm = 10 Units)	–	–
KIGTFIKKLSYTS * [Ph 26, synthetic peptide predicted as novel AMP from the P. hilaris transcriptome]	85 Units (1 mm = 10 Units)	25 Units (1 mm = 10 Units)	–	75 Units (1 mm = 10 Units)	stronger antimicrobial activity than melittin	–
RKSWRHWKC * [Ph 16, synthetic peptide predicted as novel AMP from the P. hilaris transcriptome]	50 Units (1 mm = 10 Units)	65 Units (1 mm = 10 Units)	–	87 Units (1 mm = 10 Units)	–	–
RLLLLCYACGKS * [Ph 12, synthetic peptide predicted as novel AMP from the P. hilaris transcriptome]	70 Units (1 mm = 10 Units)	40 Units (1 mm = 10 Units)	–	75 Units (1 mm = 10 Units)	–	–
RAIKWPGNGLLFLKY * [Ph 1, synthetic peptide predicted as novel AMP from the P. hilaris transcriptome]	85 Units (1 mm = 10 Units)	65 Units (1 mm = 10 Units)	–	86 Units (1 mm = 10 Units)	stronger antimicrobial activity than melittin	–
RRRCRCCRY * [Ph 14, synthetic peptide predicted as novel AMP from the P. hilaris transcriptome]	65 Units (1 mm = 10 Units)	105 Units (1 mm = 10 Units)	–	70 Units (1 mm = 10 Units)	–	stronger antimicrobial activity than melittin
KLSNAVFKSCRKI * [Ph 24, synthetic peptide predicted as novel AMP from the P. hilaris transcriptome]	49 Units (1 mm = 10 Units)	47 Units (1 mm = 10 Units)	–	65 Units (1 mm = 10 Units)	–	–
KLPIVNVKLVNRIK * [Ph 2, synthetic peptide predicted as novel AMP from the P. hilaris transcriptome]	80 Units (1 mm = 10 Units)	80 Units (1 mm = 10 Units)	–	90 Units (1 mm = 10 Units)	stronger antimicrobial activity than melittin	stronger antimicrobial activity than melittin
RCLKTCFLSFIRY * [Ph 8, synthetic peptide predicted as novel AMP from the P. hilaris transcriptome]	71 Units (1 mm = 10 Units)	45 Units (1 mm = 10 Units)	–	83 Units (1 mm = 10 Units)	–	–
KLQVVPAIHLVWLQK * [Ph 4, synthetic peptide predicted as novel AMP from the P. hilaris transcriptome]	75 Units (1 mm = 10 Units)	30 Units (1 mm = 10 Units)	–	80 Units (1 mm = 10 Units)	–	–
KRGYQVPRIAFII * [Ph 3, synthetic peptide predicted as novel AMP from the P. hilaris transcriptome]	72 Units (1 mm = 10 Units)	80 Units (1 mm = 10 Units)	–	85 Units (1 mm = 10 Units)	–	stronger antimicrobial activity than melittin
RISCVAMRLILK * [Ph 10, synthetic peptide predicted as novel AMP from the P. hilaris transcriptome]	67 Units (1 mm = 10 Units)	48 Units (1 mm = 10 Units)	–	72 Units (1 mm = 10 Units)	–	–
